# Measured values from patent publication US20230310432A1 (JULIUS-MAXIMILIANS-UNIVERSITÄT WÜRZBURG, priority 2017, published 2023).
# Read-outs that look alike come from different tables or passages of the source.
# Columns and labels:
# [1] = tested on: CD8+ T cells expressing a SLAMF7 CAR with CD28 costimulatory domain; test: Bioluminescence-based cytotoxicity assay, K562/SLAMF7 target cells; format: cell-based, human
# [2] = tested on: NFAT-inducible GFP reporter gene in CD8+ CD19 CAR/4-1BB T cells; test: NFAT-inducible GFP reporter assay; format: cell-based, human; details: 100 nM dasatinib; stimulation with Raji, 24 h; 1211 without dasatinib, 117 unstimulated
# Experimental: T cells (co-)expressing the NFAT inducible GFPwt reporter gene were co-cultured in the presence of 10 U IL-2 with irradiated (80 Gy) Raji or K562 tumor cells at an E:T ratio of 5:1 or without target cells. […] After 24 hours of co-culture, cells were labeled with anti-CD3 mAb, and analyzed by flow cytometry to assess GFP expression in T cells.
# The inventors prepared CD8^+ CD19 CAR/4-1BB T cells, that the inventors transduced to co-express an NFAT-inducible GFP reporter gene.
# [3] = tested on: CD8+ T cells expressing a SLAMF7 CAR with CD28 costimulatory domain; test: Cytokine ELISA, co-culture with K562/SLAMF7; format: cell-based, human; details: 20 h
# Experimental: (§1) Cytokine secretion: 5×10^4 T-cells were plated in duplicate or triplicate wells with target cells at an E:T ratio of 4:1 (K562/ROR1, K562/CD19, RCH-ACV), and IFN-γ and IL-2 were measured by ELISA, or cytokine panels were measured by multiplex cytokine immunoassay (Luminex) in supernatant removed after 20-h incubation. Specific cytokine production was calculated by subtracting the amount of cytokines released by unstimulated CAR-T cells from the amount of cytokines released after antigen-specific stimulation. The remaining cytokine secretion in % as shown in the diagrams is normalized to CAR-T cells in the absence of dasatinib-treatment (100%).
# (§2) The inventors prepared SLAMF7-specific CD8^+ and CD4^+ CAR-T cell lines from n=2 healthy donors. In each of the T-cell lines, the inventors enriched CAR-expressing T cells to >90% purity using the EGFRt-transduction marker. […] CAR-T cells were co-cultured with K562 that the inventors had transduced with SLAMF7. Dasatinib was added to the assay medium at the beginning of the co-culture assay. ELISA was performed to detect IFN-γ and IL-2 in supernatant removed from the co-culture.
# [4] = tested on: CD4+ T cells expressing a SLAMF7 CAR with 4-1BB costimulatory domain; test: Cytokine ELISA, co-culture with K562/SLAMF7; format: cell-based, human; details: dasatinib ≥20 nM; 20 h
# Experimental: as §1, §2
# [5] = tested on: activated CD19 CAR/4-1BB-T cells; format: in vivo, NSG mice
# [6] = tested on: CD8+ T cells expressing a CD19 CAR with CD28 costimulatory domain; test: Cytokine production and secretion (IFN-γ, IL-2 ELISA), co-culture with K562/CD19; format: cell-based, human; details: dasatinib ≥50 nM; 20 h
# Experimental: as §1
# CAR-T cells were co-cultured with K562 that the inventors had transduced with either CD19 (for testing CD19 CAR-T cells) or ROR1 (for testing ROR1 CAR-T cells). Dasatinib was added to the assay medium at the beginning of the co-culture assay. ELISA was performed to detect IFN-γ and IL-2 in supernatant removed from the co-culture.
# [7] = tested on: CD8+ T cells expressing a CD19 CAR with 4-1BB costimulation; test: Bioluminescence-based cytotoxicity assay, K562/CD19 target cells; format: cell-based, human; details: dasatinib 100 nM added 1 hour after the start of the co-culture; t=10 hours; >90% without dasatinib
# [8] = tested on: CD8+ T cells expressing a CD19 CAR with 4-1BB costimulation; test: CFSE proliferation assay, co-culture with K562/CD19; format: cell-based, human; details: 72 h
# [9] = tested on: CD8+ T cells expressing a CD19 CAR with 4-1BB costimulation; test: Bioluminescence-based cytotoxicity assay, K562/CD19 target cells; format: cell-based, human
# Experimental: Cytotoxicity: Target cells were stably transduced with ffluc_GFP and incubated in triplicate wells at 1×10^4 cells/well with effector T cells at an effector to target (E:T) ratio of 5:1. D-luciferin substrate (Biosynth, Staad, Switzerland) was added to the co-culture to a final concentration of 0.15 mg/ml and the decrease in luminescence signal in wells that contained target cells and T-cells was measured using a luminometer (Tecan, Mannedorf, Switzerland). Specific lysis was calculated using the standard formula.
# The inventors prepared CD8+ CAR-T cell lines from n=3 healthy donors. In each of the T-cell lines, the inventors enriched CAR-expressing T cells to >90% purity using the EGFRt-transduction marker. The inventors analyzed cytolytic activity of CD8^+ CAR-T cells in a bioluminescence-based cytotoxicity assay using K562 that the inventors had transduced with either CD19 (for testing CD19 CAR-T cells) or ROR1 (for testing ROR1 CAR-T cells) as target cells. Dasatinib was added to the assay medium at the beginning of the assay.
# The inventors prepared CD8^+ CAR-T cell lines from n=3 healthy donors. In each of the T-cell lines, the inventors enriched CAR-expressing T cells to >90% purity using the EGFRt-transduction marker. The inventors analyzed cytolytic activity of CD8^+ CAR-T cells in a bioluminescence-based cytotoxicity assay using K562 target cells that the inventors had transduced with CD19.
# The CAR-T cell cytolytic activity was analyzed at 1-hour intervals for 10 hours.
# The inventors analyzed cytolytic activity of CD8+ CAR-T cells in a bioluminescence-based cytotoxicity assay.
# The inventors prepared CD8^+ CD19 CAR-T cell lines with a 4-1BB costimulatory domain from one healthy donor. In the T-cell line, the inventors enriched CAR expressing T cells to >90% purity using the EGFRt-transduction marker. The inventors analyzed cytolytic activity of CD8^+ CAR-T cells in a 4-hour bioluminescence-based cytotoxicity assay using K562 that the inventors had transduced with CD19 as target cells to assess the influence of a panel of Src-kinase inhibitors on the cytolytic function of CAR-T cells. Src-kinase inhibitors were added to the assay medium at the beginning of the assay over a 4-log concentration range.
# [10] = cited from earlier work
smiles,measurement,setting,value
Cc1nc(Nc2ncc(C(=O)Nc3c(C)cccc3Cl)s2)cc(N2CCN(CCO)CC2)n1 [dasatinib],specific lysis of target cells,"[1]; dasatinib 20, 40 and 60 nM, t=6 h, 67% by non-dasatinib treated",less than 21%
same,residual specific lysis of target cells,"[1]; dasatinib 20, 40 and 60 nM, t=12 h, 85% by non-dasatinib treated",less than 35%
same,specific lysis of target cells,"[1]; dasatinib ≥80 nM, any given time point, 85% by non-dasatinib treated at t=12 h",less than 3%
same,mean fluorescence intensity (MFI) of GFP expression,[2],129
same,residual specific IFN-γ production,[3]; dasatinib ≥20 nM,less than 4%
same,residual specific IFN-γ production,[3]; dasatinib ≥40 nM,less than 0.2%
same,residual IFN-γ,[4],less than 0.5%
same,serum level of IFN-γ,"[5]; day 12, CAR(ON/OFF/ON), 157 pg/ml in CAR(ON)",24 pg/mL
same,serum level of IFN-γ,"[5]; day 14, dasatinib discontinued",38 pg/mL
same,residual specific IFN-γ production compared to non-dasatinib treated CAR-T cells,[6],less than 4.5%
same,specific lysis,[7],34%
same,remaining proliferation,[8]; 0.1 μM dasatinib,< 5.6%
same,residual proliferation compared to non-dasatinib treated CAR-T cells,[8]; dasatinib ≥3.125 nM,less than 80%
same,residual proliferation compared to non-dasatinib treated CAR-T cells,[8]; dasatinib ≥12.5 nM,less than 45%
same,residual proliferation compared to non-dasatinib treated CAR-T cells,[8]; dasatinib ≥50 nM,less than 8%
same,specific lysis,"[9]; 0.1 μM dasatinib at the beginning of the assay, t=10 h",< 1%
same,specific lysis of target cells,"[9]; dasatinib 25 nM, t=6 h, 53% by non-dasatinib treated",26%
same,specific lysis of target cells,"[9]; dasatinib 25 nM, t=12 h, 93% by non-dasatinib treated",73%
same,specific lysis of target cells,"[9]; dasatinib 100 nM for 2 hours, then removed, at 10 hours",> 95%
same,specific lysis of target cells,"[9]; dasatinib 100 nM for 2 hours, then removed, at +4 hours",77%
same,specific lysis of target cells,"[9]; dasatinib ≤12.5 nM, t=12 h, 93% by non-dasatinib treated CAR-T cells",> 88%
same,specific lysis of target cells,"[9]; dasatinib ≥50 nM, t=12 h, 93% by non-dasatinib treated",less than 12%
same,specific lysis of target cells,"[9]; dasatinib ≥50 nM, up to t=6 h",less than 7%
same,specific lysis of target cells,"[9]; inhibitor 10 nM, 4-hour assay, 82% by untreated CAR-T cells",16.1%
same,dasatinib concentration in mouse serum,"[10]; 5 mg/kg i.p., after each injection, based on known pharmacokinetics [23]",> 50 nM
same,window after each injection with dasatinib at that serum concentration,"[10]; 5 mg/kg i.p., based on known pharmacokinetics [23]",~6 h
same,total window with dasatinib present in mouse serum at that concentration,"[10]; 10 mg/kg i.p. every 6 hours, 6 doses, 3 hours prior to 33 hours after T-cell transfer",36 h
same,dasatinib concentration in mouse serum,"[10]; 10 mg/kg i.p. every 6 hours, 6 doses, based on known pharmacokinetics [23]",at least 100 nM
